Test results as given in paper PMC3323550, “Functional Characterization of EngA^MS, a P-Loop GTPase of Mycobacterium smegmatis” (PLoS ONE, 2012).
Blank lines part the entries; values can stand above or below the molecule they belong to.

Columns and labels:
EngA^MS (MSMEG_3738) [1] = molecular target: T1, EngA^MS (MSMEG_3738) (Mycolicibacterium smegmatis, UniProt A0QYP9, D331N); assay: fluorescent mant-nucleotide binding assay, single concentration; settings: 4 µM protein, 1 µM mant-GDP, 40 mM Tris-Cl pH 8.0, 2 mM MgCl2, 40% glycerol, room temperature; labelled compound
T1 construct: gene der
T1 sequence (A0QYP9 entry or part of it D331N): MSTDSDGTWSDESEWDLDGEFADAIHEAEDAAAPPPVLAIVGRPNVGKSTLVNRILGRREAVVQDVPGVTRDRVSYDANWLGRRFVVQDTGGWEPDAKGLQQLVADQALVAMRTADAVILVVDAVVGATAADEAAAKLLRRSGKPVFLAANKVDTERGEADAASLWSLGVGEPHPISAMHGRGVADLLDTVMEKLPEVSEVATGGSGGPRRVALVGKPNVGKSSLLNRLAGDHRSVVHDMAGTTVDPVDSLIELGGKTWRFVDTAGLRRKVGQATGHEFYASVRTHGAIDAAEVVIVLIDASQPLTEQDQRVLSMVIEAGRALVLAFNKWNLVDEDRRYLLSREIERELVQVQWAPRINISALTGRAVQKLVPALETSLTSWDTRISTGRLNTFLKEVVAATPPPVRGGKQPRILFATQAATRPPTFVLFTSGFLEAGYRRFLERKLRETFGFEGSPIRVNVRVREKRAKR

EngA^MS (MSMEG_3738) [2] = molecular target: T2, EngA^MS (MSMEG_3738) (Mycolicibacterium smegmatis, UniProt A0QYP9, D154N); assay: as above; settings: 4 µM protein, 1 µM mant-GDP, 40 mM Tris-Cl pH 8.0, 2 mM MgCl2, 40% glycerol, room temperature; labelled compound
T2 construct: gene der
T2 sequence (A0QYP9 entry or part of it D154N): as the sequence (A0QYP9 entry or part of it D331N) above, with D154N, N331D counted along it

EngA^MS (MSMEG_3738) [3] = molecular target: T3, EngA^MS (MSMEG_3738) (Mycolicibacterium smegmatis, UniProt A0QYP9); assay: colorimetric Pi release GTPase assay; format: biochemical
T3 construct: gene der
T3 sequence (A0QYP9 1-471): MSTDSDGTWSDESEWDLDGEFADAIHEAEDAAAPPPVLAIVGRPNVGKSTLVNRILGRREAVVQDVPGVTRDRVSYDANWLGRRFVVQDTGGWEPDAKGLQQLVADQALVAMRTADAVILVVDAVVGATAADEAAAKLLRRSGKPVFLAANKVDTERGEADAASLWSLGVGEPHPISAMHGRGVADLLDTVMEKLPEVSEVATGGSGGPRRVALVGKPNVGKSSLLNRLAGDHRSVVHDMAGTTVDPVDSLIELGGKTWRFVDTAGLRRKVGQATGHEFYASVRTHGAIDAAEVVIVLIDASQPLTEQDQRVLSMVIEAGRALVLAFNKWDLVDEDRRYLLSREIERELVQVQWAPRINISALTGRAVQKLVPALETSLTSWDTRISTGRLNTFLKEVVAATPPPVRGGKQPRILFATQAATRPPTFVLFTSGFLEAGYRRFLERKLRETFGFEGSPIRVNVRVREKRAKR

[4] = substrate: Nc1nc2c(ncn2[C@@H]2O[C@H](COP(=O)(O)OP(=O)(O)OP(=O)(O)O)[C@@H](O)[C@H]2O)c(=O)[nH]1; assay: colorimetric Pi release GTPase assay; format: biochemical, Mycolicibacterium smegmatis; settings: 40 mM Tris-Cl pH 8.0, 2 mM MgCl2, 40% glycerol, 1 h, no GDP

% reduction in binding affinity vs wild-type (EngA^MS (MSMEG_3738) [1]): ~ 50%
% reduction in binding affinity vs wild-type (EngA^MS (MSMEG_3738) [2]): ~ 50%
Molecule: CNc1ccccc1C(=O)O[C@H]1[C@@H](O)[C@H](n2cnc3c(=O)[nH]c(N)nc32)O[C@@H]1COP(=O)(O)OP(=O)(O)O [mant-GDP]

inhibition at 200 µM (EngA^MS (MSMEG_3738) [3]): 40%
Molecule: Nc1nc2c(ncn2[C@@H]2O[C@H](COP(=O)(O)OP(=O)(O)O)[C@@H](O)[C@H]2O)c(=O)[nH]1 [GDP]

B1: EngA^MS (MSMEG_3738) (Mycolicibacterium smegmatis MC2 155) (protein)
chain: MSTDSDGTWSDESEWDLDGEFADAIHEAEDAAAPPPVLAIVGRPNVGKSTLVNRILGRREAVVQDVPGVTRDRVSYDANWLGRRFVVQDTGGWEPDAKGLQQLVADQALVAMRTADAVILVVDAVVGATAADEAAAKLLRRSGKPVFLAANKVDTERGEADAASLWSLGVGEPHPISAMHGRGVADLLDTVMEKLPEVSEVATGGSGGPRRVALVGKPNVGKSSLLNRLAGDHRSVVHDMAGTTVDPVDSLIELGGKTWRFVDTAGLRRKVGQATGHEFYASVRTHGAIDAAEVVIVLIDASQPLTEQDQRVLSMVIEAGRALVLAFNKWDLVDEDRRYLLSREIERELVQVQWAPRINISALTGRAVQKLVPALETSLTSWDTRISTGRLNTFLKEVVAATPPPVRGGKQPRILFATQAATRPPTFVLFTSGFLEAGYRRFLERKLRETFGFEGSPIRVNVRVREKRAKR
Km [4]: 39 µM
kcat [4]: 8.3e-05 s⁻¹
